How the values were obtained:
human IR(B) = biological target: T1, human IR(B) (Homo sapiens, UniProt P06213); assay: Insulin Receptor Phosphorylation Assay (MSD pIR assay; Methods A and B); format: cell-based; conditions: Method B: IR phosphorylation assay, 384-well with automated liquid dispense; CHO cells expressing human IR(B); read-out: IR Activation IP†
T1 construct: expressed in transfected cells
Procedure: Insulin Receptor Phosphorylation Assays were performed as follows.
Cells were harvested and frozen in aliquots for use in the MSD pIR assay. Briefly, the frozen cells were plated in either 96-well (40,000 cells/well, Method A) or 384-well (10,000 cells/well, Method B) clear tissue culture plates and allowed to recover. IOC molecules at the appropriate concentrations were added and the cells incubated for 8 min at 37° C. The media was aspirated and chilled MSD cell lysis buffer was added as per MSD kit instructions. The cells were lysed on ice for 40 min and the lysate then mixed for 10 minutes at room temperature. The lysate was transferred to the MSD kit pIR detection plates. The remainder of the assay was carried out following the MSD kit recommended protocol.

[1] = biological target: T2, Human macrophage mannose receptor 1 (MRC1) (Homo sapiens, UniProt P22897); assay: MRC1 competition binding assay with Eu-labeled mannosylated-BSA (Methods E and F); conditions: Method F: MRC1 assay in a 384-well plate; read-out: MRC1 Binding IP‡
T2 sequence (P22897 19-1456): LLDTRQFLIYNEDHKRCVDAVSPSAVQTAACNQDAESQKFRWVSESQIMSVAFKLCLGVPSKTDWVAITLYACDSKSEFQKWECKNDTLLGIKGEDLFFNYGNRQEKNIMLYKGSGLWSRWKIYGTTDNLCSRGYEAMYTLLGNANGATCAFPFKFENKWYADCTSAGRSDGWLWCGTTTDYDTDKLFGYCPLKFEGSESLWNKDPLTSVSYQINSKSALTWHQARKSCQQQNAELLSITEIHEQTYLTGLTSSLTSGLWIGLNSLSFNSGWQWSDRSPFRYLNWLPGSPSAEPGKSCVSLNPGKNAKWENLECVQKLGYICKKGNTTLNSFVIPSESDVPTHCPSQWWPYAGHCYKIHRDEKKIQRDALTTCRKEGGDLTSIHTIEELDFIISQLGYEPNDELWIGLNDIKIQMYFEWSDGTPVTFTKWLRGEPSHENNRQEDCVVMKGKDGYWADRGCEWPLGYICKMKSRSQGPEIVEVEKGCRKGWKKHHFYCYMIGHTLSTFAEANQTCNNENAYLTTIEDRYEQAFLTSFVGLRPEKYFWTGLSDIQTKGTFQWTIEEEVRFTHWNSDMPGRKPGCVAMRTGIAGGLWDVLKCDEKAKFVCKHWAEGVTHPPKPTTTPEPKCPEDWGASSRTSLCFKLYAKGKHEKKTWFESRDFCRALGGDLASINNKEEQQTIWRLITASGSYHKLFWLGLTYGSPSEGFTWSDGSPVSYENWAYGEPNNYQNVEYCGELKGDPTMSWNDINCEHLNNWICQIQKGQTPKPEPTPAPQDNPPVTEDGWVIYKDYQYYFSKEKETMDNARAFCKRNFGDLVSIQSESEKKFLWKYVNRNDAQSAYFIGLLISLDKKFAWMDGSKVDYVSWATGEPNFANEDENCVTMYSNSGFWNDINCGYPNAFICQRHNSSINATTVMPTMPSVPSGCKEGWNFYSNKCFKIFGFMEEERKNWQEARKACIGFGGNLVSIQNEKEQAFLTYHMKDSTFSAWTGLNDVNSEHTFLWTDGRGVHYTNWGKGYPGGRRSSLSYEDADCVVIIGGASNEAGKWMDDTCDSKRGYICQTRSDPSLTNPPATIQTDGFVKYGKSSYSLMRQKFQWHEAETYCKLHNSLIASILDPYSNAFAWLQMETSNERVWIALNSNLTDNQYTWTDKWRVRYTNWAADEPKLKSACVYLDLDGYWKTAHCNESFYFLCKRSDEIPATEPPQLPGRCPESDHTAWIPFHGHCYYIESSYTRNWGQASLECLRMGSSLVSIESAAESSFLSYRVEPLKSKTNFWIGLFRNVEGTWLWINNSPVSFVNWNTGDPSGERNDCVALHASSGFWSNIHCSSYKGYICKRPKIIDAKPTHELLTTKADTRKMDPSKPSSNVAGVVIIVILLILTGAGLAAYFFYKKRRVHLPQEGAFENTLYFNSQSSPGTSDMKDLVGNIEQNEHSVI
Procedure: Human macrophage mannose receptor 1 (MRC1) Binding Assays were performed as follows.
The competition binding assay for MRC1 utilized a ligand, mannosylated-BSA labeled with the DELFIA Eu-N1-ITC reagent, as reported in the literature. Assay was performed either in a 96-well plate with 100 μL well volume (Method E) or in a 384-well plate with 25 μL well volume (Method F). […] The antibody was incubated in the plate for 1 hr at room temperature with shaking. The plate was washed with wash buffer 3-5 times followed by addition of MRC1 (2 ng/μl final concentration) in PBS containing 1% stabilizer BSA. The plate was incubated at room temperature with gentle shaking for 1 hr. The plate was washed three times with wash buffer. The IOC molecules in 12.5 μL (or 50 μL depending on plate format) buffer at appropriate concentrations were added followed by 12.5 μL (or 50 μL) Eu-mannosylated-BSA (0.1 nM final concentration) in 50 mM Tris, pH 7.5 containing 100 mM NaCl, 5 mM CaCl2, 1 mM MgCl2 and 0.2% stabilizer BSA. The plate was incubated for 2 hrs at room temperature with shaking followed by washing three times with wash buffer. Perkin Elmer Eu-inducer reagent was added and incubated for 30 min at room temperature prior to detection of the Eu signal (Excitation=340 nm: Emission=615 nm).

[2] = biological target: human insulin receptor type B (IR(B)) (Homo sapiens, UniProt P06213); assay: Insulin Receptor Binding Assay, scintillation proximity assay with cell membranes (Method D)
Sequence of human insulin receptor type B (IR(B)) (P06213 28-758 limits assumed): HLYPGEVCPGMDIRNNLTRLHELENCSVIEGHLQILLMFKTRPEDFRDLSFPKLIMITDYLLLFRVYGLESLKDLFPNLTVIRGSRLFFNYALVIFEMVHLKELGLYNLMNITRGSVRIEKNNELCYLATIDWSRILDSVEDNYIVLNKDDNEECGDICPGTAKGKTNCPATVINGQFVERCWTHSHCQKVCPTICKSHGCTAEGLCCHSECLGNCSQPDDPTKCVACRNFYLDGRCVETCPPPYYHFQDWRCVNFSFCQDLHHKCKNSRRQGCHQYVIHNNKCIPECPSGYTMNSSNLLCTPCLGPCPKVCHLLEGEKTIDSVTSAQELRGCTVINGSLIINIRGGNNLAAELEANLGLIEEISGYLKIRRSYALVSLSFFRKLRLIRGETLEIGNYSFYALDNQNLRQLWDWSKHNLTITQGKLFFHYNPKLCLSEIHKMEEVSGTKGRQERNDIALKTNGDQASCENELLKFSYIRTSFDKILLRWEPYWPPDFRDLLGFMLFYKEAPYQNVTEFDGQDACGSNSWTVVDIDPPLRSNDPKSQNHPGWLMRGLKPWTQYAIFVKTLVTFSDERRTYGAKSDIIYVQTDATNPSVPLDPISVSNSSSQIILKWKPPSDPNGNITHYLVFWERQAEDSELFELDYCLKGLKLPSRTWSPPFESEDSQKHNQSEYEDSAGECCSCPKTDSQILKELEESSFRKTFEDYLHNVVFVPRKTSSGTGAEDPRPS
Sequence of human insulin receptor type B (IR(B)) (P06213 763-1382 partner limits assumed): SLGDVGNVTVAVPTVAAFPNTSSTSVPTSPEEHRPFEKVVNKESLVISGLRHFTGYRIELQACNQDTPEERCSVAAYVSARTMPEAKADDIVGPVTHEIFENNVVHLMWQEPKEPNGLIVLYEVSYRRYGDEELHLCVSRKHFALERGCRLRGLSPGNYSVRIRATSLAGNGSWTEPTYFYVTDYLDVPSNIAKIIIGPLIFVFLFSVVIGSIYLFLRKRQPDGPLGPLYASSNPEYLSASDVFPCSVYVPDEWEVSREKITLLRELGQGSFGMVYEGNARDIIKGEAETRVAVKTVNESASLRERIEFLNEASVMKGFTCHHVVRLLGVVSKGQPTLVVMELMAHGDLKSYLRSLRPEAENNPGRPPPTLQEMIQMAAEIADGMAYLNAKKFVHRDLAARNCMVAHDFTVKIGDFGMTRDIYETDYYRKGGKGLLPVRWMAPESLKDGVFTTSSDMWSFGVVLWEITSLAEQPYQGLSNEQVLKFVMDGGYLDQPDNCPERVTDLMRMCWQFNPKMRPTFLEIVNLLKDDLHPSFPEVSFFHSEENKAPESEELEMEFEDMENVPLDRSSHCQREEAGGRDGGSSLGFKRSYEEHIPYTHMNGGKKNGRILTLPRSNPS

T1 sequence (P06213 28-758 limits assumed): as the sequence (P06213 28-758 limits assumed) above
T1 sequence (P06213 763-1382 partner limits assumed): as the sequence (P06213 763-1382 partner limits assumed) above

With `CC[C@H](C)[C@H](NC(=O)CN)C(=O)N[C@H](C(=O)N[C@@H](CCC(=O)O)C(=O)N[C@@H](CCC(N)=O)C(=O)N[C@H]1CSSC[C@@H]2NC(=O)[C@H]([C@@H](C)CC)NC(=O)[C@H](CO)NC(=O)[C@H]([C@@H](C)O)NC(=O)[C@H](CSSC[C@H](NC(=O)[C@H](CC(C)C)NC(=O)[C@H](Cc3c[nH]cn3)NC(=O)[C@H](CCC(N)=O)NC(=O)[C@H](CC(N)=O)NC(=O)[C@@H](NC(=O)[C@H](Cc3ccccc3)NC(=O)CCCCC(=O)N(CC(=O)NCCO[C@@H]3O[C@H](CO)[C@@H](O)[C@H](O)[C@H]3O)CC(=O)N(CCO[C@H]3O[C@H](CO)[C@@H](O)[C@H](O)[C@@H]3O)CCO[C@H]3O[C@H](CO)[C@@H](O)[C@H](O)[C@@H]3O)C(C)C)C(=O)NCC(=O)N[C@@H](CO)C(=O)N[C@@H](Cc3c[nH]cn3)C(=O)N[C@@H](CC(C)C)C(=O)N[C@@H](C(C)C)C(=O)N[C@@H](CCC(=O)O)C(=O)N[C@@H](C)C(=O)N[C@@H](CC(C)C)C(=O)N[C@@H](Cc3ccc(O)cc3)C(=O)N[C@@H](CC(C)C)C(=O)N[C@@H](C(C)C)C(=O)N[C@H](C(=O)NCC(=O)N[C@@H](CCC(=O)O)C(=O)N[C@@H](CCCNC(=N)N)C(=O)NCC(=O)N[C@@H](Cc3ccccc3)C(=O)N[C@@H](Cc3ccccc3)C(=O)N[C@@H](Cc3ccc(O)cc3)C(=O)N[C@H](C(=O)N3CCC[C@H]3C(=O)N[C@@H](CCCCNC(=O)CCCCC(=O)N(CC(=O)NCCO[C@@H]3O[C@H](CO)[C@@H](O)[C@H](O)[C@H]3O)CC(=O)N(CCO[C@H]3O[C@H](CO)[C@@H](O)[C@H](O)[C@@H]3O)CCO[C@H]3O[C@H](CO)[C@@H](O)[C@H](O)[C@@H]3O)C(=O)N[C@H](C(=O)O)[C@@H](C)O)[C@@H](C)O)CSSC[C@@H](C(=O)N[C@@H](CC(N)=O)C(=O)O)NC(=O)[C@H](Cc3ccc(O)cc3)NC(=O)[C@H](CC(N)=O)NC(=O)[C@H](CCC(=O)O)NC(=O)[C@H](CC(C)C)NC(=O)[C@H](CCC(N)=O)NC(=O)[C@H](Cc3ccc(O)cc3)NC(=O)[C@H](CC(C)C)NC(=O)[C@H](CO)NC2=O)NC1=O)C(C)C` [IOC-63] the EC50 (human IR(B)) was 0.63 nM, the IC50 [1] was 70.2 nM and the IC50 [2] was 1.65 nM.

— patent US11041009B2, “Glucose responsive insulin comprising a tri-valent sugar cluster for treatment of diabetes” (Merck Sharp & Dohme Corp., priority 2017, dated 2021)
